“Also recorded” adds a separate entry of the source.
Experiments:
[1] = target: T1, HCK (Homo sapiens, UniProt P08631); assay: Biochemical kinase assay (Reaction Biology); settings: 10 μM ATP
T1 construct: purchased Reaction Biology Corporation (contract assay)
Procedure: (§2) Specific kinase/substrate pairs along with required cofactors were prepared in reaction buffer; 20 mM Hepes pH 7.5, 10 mM MgCl2, 1 mM EGTA, 0.02% Brij35, 0.02 mg/ml BSA, 0.1 mM Na3VO4, 2 mM DTT, 1% DMSO (for specific details of individual kinase reaction components see Supplementary Table 2). Compounds were delivered into the reaction, followed ˜20 minutes later by addition of a mixture of ATP (Sigma, St. Louis Mo.) and ^33P ATP (Perkin Elmer, Waltham Mass.) to a final concentration of 10 μM. Reactions were carried out at room temperature for 120 min, followed by spotting of the reactions onto P81 ion exchange filter paper (Whatman Inc., Piscataway, N.J.). […] IC50 values and curve fits were obtained using Prism (GraphPad Software).

[2] = test system: Ba/F3 EML4-ALK wild type cell line; assay: Cell proliferation assay (CellTiter-Glo); type: cell-based; settings: Mus musculus, 72 hours
[3] = target: T2, TNK2 (Homo sapiens, UniProt Q07912); assay: Biochemical kinase assay (Reaction Biology); settings: 10 μM ATP
T2 construct: purchased Reaction Biology Corporation (contract assay)
T2 sequence (Q07912 whole entry): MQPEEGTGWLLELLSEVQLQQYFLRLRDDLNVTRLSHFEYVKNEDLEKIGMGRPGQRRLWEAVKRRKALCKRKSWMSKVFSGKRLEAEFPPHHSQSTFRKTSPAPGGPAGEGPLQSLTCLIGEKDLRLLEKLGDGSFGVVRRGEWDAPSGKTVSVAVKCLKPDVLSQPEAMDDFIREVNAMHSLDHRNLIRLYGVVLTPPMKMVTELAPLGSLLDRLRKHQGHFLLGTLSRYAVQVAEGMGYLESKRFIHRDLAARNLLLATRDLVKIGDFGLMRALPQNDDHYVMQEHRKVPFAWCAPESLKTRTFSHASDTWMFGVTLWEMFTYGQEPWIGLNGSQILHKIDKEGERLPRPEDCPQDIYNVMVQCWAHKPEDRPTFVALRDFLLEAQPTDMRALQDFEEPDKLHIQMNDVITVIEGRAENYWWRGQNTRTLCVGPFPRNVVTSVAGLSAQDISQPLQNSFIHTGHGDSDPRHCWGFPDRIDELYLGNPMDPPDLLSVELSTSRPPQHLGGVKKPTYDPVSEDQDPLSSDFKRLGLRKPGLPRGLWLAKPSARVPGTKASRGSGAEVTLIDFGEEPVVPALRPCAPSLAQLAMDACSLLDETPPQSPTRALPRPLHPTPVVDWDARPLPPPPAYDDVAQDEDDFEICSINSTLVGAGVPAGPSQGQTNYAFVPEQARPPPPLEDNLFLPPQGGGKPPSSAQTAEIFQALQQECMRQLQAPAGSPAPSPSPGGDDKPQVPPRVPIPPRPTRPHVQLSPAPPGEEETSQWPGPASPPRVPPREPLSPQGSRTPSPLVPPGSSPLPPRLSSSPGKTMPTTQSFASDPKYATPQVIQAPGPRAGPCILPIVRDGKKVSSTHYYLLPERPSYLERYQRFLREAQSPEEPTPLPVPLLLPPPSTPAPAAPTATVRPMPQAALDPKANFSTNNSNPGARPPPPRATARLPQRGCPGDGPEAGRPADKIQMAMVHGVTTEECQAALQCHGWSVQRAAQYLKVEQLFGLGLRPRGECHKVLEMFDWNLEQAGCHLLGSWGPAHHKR
Procedure: as §2

[4] = test system: Ba/F3 TPR-ALK wild type cell line; assay: Cell proliferation assay at Advanced Cellular Dynamics (CellTiter-Glo); type: cell-based; settings: Mus musculus, BaF3, 48 hours
[5] = test system: NIH3T3 SDC4-ROS1 WT tumors; assay: NIH3T3 SDC4-ROS1 WT subcutaneous xenograft model; type: in vivo, athymic nude mice; settings: 26 days
Procedure: Female athymic nude mice and SCID/Beige mice (5-8 weeks of age) were obtained from Charles River Laboratory and were housed in Innovive IVC disposable cages on HEPA filtered ventilated racks with ad libitum access to rodent chow and water. Five million cells in 100 μL, serum-free medium were implanted subcutaneously in the right flank region of the mouse. Karpas299 cells were implanted into the SCID/Beige mice. KM12 cells, NIH3T3 EML4-ALK wild type mutant cells, and NIH3T3 SCD4-ROS1 wild type mutant cells were implanted into the athymic nude mice, respectively. All models except KM12 were implanted with 50% matrigel (Corning, Inc) in the medium. Tumor size and body weight were measured on designated days. Tumor size was measured with an electronic caliper and tumor volume was calculated as the product of length*width^2*0.5.
The SDC4-ROS1 fusion gene is considered as the driver for tumor progression in NSCLC. […] The control group of mice were given vehicle only. Tumor volume was measured by caliper on the indicated days and is shown at mean±sem in FIG. 9.

[6] = target: T3, PLK4 (Homo sapiens, UniProt O00444); assay: Biochemical kinase assay (Reaction Biology); settings: 10 μM ATP
T3 construct: purchased Reaction Biology Corporation (contract assay)
T3 sequence (O00444 whole entry): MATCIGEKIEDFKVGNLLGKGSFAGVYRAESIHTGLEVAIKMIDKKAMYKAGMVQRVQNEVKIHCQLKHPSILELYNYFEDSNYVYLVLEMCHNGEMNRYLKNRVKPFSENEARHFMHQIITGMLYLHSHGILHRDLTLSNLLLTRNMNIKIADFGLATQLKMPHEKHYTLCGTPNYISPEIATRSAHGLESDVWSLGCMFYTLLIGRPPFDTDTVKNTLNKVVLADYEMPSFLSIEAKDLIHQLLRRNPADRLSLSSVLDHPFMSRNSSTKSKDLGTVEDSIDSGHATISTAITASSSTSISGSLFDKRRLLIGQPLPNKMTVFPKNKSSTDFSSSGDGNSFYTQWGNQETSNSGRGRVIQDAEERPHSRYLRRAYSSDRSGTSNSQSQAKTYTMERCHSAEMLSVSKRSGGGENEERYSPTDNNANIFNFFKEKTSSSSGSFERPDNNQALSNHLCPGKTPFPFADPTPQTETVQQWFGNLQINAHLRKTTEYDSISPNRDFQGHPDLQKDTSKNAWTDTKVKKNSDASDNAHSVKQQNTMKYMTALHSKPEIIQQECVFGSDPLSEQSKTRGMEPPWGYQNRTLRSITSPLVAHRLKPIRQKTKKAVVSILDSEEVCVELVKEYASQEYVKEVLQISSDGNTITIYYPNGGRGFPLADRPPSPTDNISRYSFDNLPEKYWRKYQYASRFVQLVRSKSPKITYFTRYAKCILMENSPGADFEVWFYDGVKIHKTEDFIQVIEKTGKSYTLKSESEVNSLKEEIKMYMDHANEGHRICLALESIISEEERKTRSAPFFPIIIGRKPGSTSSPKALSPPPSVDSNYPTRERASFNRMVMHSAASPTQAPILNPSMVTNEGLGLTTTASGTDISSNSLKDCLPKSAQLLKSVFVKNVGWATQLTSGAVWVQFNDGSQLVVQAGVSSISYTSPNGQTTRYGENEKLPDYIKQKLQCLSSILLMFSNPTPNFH
Procedure: as §2

[7] = target: T4, EPHA1 (Homo sapiens, UniProt P21709); assay: Biochemical kinase assay (Reaction Biology); settings: 10 μM ATP
T4 construct: purchased Reaction Biology Corporation (contract assay)
Procedure: as §2

[8] = test system: KM12 tumors; assay: KM12 colorectal cancer subcutaneous xenograft model; type: in vivo, athymic nude mice; settings: seven days
Procedure: Female athymic nude mice and SCID/Beige mice (5-8 weeks of age) were obtained from Charles River Laboratory and were housed in Innovive IVC disposable cages on HEPA filtered ventilated racks with ad libitum access to rodent chow and water. Five million cells in 100 μL, serum-free medium were implanted subcutaneously in the right flank region of the mouse. […] KM12 cells, NIH3T3 EML4-ALK wild type mutant cells, and NIH3T3 SCD4-ROS1 wild type mutant cells were implanted into the athymic nude mice, respectively. All models except KM12 were implanted with 50% matrigel (Corning, Inc) in the medium. Tumor size and body weight were measured on designated days. Tumor size was measured with an electronic caliper and tumor volume was calculated as the product of length*width^2*0.5.

[9] = test system: CD44; assay: CD44 expression by immunoblotting in H2228 cells; type: cell-based, human; settings: 48 hours treatment, 0-1000 nM
Procedure: (§1) NSCLC cell line H2228 (harboring endogenous EML4-ALK fusion gene) was cultured in RPMI medium supplemented with 10% fetal bovine serum and 100 U/mL of penicillin/streptomycin. Ba/F3 and NIH3T3 cells stably expressing ROS1, or TRKA, or TRKB, or TRKC (WT or mutant) were cultured as mentioned above. […] Cells were collected after treatment and lysed in RIPA buffer (50 mM Tris, pH 7.4, 150 mM NaCl, 1% NP-40, 0.5% Deoxycholate, 0.1% SDS) supplemented with 10 mM EDTA, 1× Halt protease and phosphatase inhibitors (Thermo Scientific). Protein lysates (approximately 20 μg) was resolved on 4-12% Bolt Bis-Tris precasted gels with MES running buffer (Life Technologies), transferred to nitrocellulose membranes using Trans-Blot Turbo Transfer System (Bio-Rad) and detected with antibodies targeting phosphorylated phosphorylated ROS1 and total ROS1 (Cell Signaling Technology), phosphorylated TRK A/B (Cell Signaling Technology), total TRKA antibody (Santa Cruz Biotechnology), phosphorylated SRC Y416 (Cell Signaling Technology), total SRC (Cell Signaling Technology), phosphorylated FAK Y576/577 (Cell Signaling Technology), total FAK (Cell Signaling Technology), phosphorylated paxillin Y118 (Cell Signaling Technology), total paxillin (Cell Signaling Technology), phosphorylated EGFR and total EGFR, CD44, and Tubulin (Sigma). […]

[10] = target: FAK (Homo sapiens, UniProt Q05397); assay: Immunoblotting cellular kinase phosphorylation assay, NCI-H2228 cells; type: cell-based; settings: 4 hours treatment; read-out: FAK phosphorylation of NCI-H2228 cell line IC50
FAK, sequence (Q05397 whole entry): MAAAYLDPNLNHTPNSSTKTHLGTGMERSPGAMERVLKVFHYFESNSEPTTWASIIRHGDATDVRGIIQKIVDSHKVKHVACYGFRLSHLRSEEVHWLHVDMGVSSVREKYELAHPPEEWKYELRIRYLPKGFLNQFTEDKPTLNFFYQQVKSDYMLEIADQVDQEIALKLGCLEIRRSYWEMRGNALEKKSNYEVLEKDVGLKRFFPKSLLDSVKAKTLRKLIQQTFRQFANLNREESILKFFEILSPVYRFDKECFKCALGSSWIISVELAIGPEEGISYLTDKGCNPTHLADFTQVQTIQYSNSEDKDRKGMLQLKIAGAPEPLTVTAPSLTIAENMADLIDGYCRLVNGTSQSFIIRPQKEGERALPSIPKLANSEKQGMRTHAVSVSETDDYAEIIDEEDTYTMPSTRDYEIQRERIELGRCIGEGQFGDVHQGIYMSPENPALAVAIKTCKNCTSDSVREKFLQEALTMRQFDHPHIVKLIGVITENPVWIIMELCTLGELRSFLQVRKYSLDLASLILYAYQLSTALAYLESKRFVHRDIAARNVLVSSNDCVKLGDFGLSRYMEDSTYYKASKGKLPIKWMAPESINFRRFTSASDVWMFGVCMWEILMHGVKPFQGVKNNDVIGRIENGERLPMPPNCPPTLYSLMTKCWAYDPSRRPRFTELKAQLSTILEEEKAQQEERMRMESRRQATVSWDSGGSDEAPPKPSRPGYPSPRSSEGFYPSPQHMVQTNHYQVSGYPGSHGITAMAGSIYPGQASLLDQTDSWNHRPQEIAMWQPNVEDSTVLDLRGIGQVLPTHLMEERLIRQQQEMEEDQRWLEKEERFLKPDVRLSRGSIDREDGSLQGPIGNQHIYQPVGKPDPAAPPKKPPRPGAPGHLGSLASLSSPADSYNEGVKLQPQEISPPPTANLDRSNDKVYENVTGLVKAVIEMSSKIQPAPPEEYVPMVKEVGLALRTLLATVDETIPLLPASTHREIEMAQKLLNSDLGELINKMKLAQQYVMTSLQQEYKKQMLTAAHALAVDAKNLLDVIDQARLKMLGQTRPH
Procedure: as §1

[11] = target: T5, PYK2 (Homo sapiens, UniProt Q14289); assay: Biochemical kinase assay (Reaction Biology); settings: 10 μM ATP
T5 construct: purchased Reaction Biology Corporation (contract assay)
T5 sequence (Q14289 whole entry): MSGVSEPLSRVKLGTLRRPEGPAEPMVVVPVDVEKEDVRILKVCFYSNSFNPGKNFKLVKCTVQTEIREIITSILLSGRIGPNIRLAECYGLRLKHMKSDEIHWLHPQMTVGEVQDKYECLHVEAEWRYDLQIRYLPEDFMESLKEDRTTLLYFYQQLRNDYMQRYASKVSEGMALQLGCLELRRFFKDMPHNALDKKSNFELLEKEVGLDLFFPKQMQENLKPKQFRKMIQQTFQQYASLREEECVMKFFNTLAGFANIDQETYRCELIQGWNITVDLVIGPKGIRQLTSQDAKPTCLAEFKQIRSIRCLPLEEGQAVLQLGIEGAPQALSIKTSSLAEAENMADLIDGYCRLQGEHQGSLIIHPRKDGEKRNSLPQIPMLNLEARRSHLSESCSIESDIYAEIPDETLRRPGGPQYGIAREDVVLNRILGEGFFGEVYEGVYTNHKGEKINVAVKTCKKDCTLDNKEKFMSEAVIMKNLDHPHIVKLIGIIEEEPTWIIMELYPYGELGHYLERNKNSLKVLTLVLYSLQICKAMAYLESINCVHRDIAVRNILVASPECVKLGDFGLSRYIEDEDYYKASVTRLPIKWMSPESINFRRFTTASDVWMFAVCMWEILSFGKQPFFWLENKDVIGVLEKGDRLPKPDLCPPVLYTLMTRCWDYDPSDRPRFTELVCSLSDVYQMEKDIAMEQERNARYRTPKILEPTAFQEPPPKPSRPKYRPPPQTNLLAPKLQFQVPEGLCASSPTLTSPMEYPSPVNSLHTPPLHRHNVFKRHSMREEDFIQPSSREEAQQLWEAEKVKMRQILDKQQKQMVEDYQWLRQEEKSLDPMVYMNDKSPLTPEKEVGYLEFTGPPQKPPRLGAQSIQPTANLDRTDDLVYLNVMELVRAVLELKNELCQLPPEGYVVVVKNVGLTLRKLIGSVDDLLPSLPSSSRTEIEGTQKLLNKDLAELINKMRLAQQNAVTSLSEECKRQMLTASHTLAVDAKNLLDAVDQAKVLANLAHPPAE
Procedure: as §2

[12] = test system: Karpas-299 cells; assay: Apoptosis/caspase activity assay; type: cell-based; settings: 48 hours treatment
Procedure: Karpas-299 cells were maintained in RPMI medium supplemented with 10% fetal bovine serum and antibiotics. Five hundred thousand cells per well were seeded in 12-well plate and various concentration of compounds were introduced and incubated for 48 hrs. The cells were then collected and lysed in a lysis buffer (20 mM HEPES, 150 mM NaCl, 10 mM KCl, 5 mM EDTA, 1% NP40) supplemented with Halt protease and phosphatase inhibitors (Thermo Scientific). For caspase assays, approximately 20 μg of cell lysate were incubated with 20 μl of caspase-3 glo reagent (Promega), and the enzyme activity was measured by the release of luminescence after 20 min incubation at 37° C. For western blotting, cell lysate were boiled and analyzed by SDS-PAGE/immunoblotting using anti-caspase-3 (Cell Signaling Technology), anti-PARP (Cell Signaling Technology), or anti-actin (Cell Signaling Technology) antibodies. Antibodies were typically incubated overnight at 4° C. with gentle shake, followed by washes and incubation with the appropriate HRP-conjugated secondary antibodies. Membranes were incubated with chemiluminescent substrate for 5 min at room temperature (SuperSignal West Femto, Thermo Scientific), and the chemiluminescent images were obtained with a C-DiGit Imaging System (LI-COR Biosciences).

[13] = target: T6, LCK (Homo sapiens, UniProt P06239); assay: Biochemical kinase assay (Reaction Biology); settings: 10 μM ATP
T6 construct: purchased Reaction Biology Corporation (contract assay)
T6 sequence (P06239 whole entry): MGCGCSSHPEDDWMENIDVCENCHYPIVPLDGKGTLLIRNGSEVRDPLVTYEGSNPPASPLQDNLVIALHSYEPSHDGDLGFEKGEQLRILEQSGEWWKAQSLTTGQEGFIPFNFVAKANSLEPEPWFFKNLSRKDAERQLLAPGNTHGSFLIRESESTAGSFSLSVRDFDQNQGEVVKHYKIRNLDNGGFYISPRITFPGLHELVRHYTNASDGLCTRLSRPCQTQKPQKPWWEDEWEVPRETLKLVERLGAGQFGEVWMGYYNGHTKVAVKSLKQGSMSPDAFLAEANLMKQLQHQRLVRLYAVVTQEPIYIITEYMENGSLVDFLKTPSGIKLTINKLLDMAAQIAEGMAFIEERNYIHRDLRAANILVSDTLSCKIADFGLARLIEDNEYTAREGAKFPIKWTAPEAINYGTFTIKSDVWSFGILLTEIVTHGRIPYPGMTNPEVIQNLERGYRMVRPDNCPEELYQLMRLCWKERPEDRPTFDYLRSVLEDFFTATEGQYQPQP
Procedure: as §2

[14] = test system: Ba/F3 EML4-ALK F1174C cell line; assay: Cell proliferation assay (CellTiter-Glo); type: cell-based; settings: Mus musculus, 72 hours
[15] = Example 13: 15 mg/kg BID orally
[16] = Example 13: 75 mg/kg BID orally

T1 sequence (P08631 whole entry): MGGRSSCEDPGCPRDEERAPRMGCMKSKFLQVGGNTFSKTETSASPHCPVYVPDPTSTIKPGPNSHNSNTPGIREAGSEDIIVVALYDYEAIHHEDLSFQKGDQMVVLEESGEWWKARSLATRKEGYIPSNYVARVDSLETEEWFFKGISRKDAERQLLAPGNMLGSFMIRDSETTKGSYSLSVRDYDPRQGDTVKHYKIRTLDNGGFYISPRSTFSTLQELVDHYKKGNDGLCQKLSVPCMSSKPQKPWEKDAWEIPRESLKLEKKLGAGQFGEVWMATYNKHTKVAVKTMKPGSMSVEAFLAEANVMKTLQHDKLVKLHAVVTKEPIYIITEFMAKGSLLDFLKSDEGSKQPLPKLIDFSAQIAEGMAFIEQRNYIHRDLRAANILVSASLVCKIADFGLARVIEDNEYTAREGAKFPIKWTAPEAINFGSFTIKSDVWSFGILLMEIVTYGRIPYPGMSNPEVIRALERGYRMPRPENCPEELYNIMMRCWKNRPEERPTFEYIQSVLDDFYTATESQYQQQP

C[C@H]1CNC(=O)c2cnn3ccc(nc23)N[C@H](C)c2cc(F)ccc2O1 [Compound 1, (7S,13R)-11-fluoro-7,13-dimethyl-6,7,13,14-tetrahydro-1,15-ethenopyrazolo[4,3-f][1,4,8,10]benzoxatriazacyclotridecin-4(5H)-one]
IC50 [1]: 16.4 nM | IC50 [2]: 17.8 nM | IC50 [3]: 24.1 nM | IC50 [4]: 12 nM | mice exhibiting tumor regression ([5]; 15 mg/kg BID orally): 7 of 8 | tumor regression (REG) ([5]; 15 mg/kg BID orally): 39% | mice exhibiting tumor regression ([5]; 50 mg/kg BID orally): 7 of 7 | tumor regression (REG) ([5]; 50 mg/kg BID orally): 69% | IC50 [6]: 126 nM | IC50 [7]: 25 nM | mice exhibiting tumor regression [8, 15]: 8 of 8 | tumor regression (REG) [8, 15]: 13% | mice exhibiting tumor regression [8, 16]: 5 of 8 | tumor regression (REG) [8, 16]: 11% | Tumor growth inhibition (TGI) ([8]; Example 15: 1 mg/kg BID orally): 77% | mice exhibiting tumor regression ([8]; Example 15: 3 mg/kg BID orally): 2 of 10 | mice exhibiting tumor regression ([8]; Example 15: 15 mg/kg BID orally): 5 of 10 | tumor regression (REG) ([8]; Example 15 dose dependent study: 15 mg/kg BID orally): 1% | CD44 expression level [9]: down-regulates CD44 expression; also recorded: suppressed CD44 expression level in H2228 cells in a concentration-dependent manner | IC50 [10]: 100 nM | IC50 [11]: 39.9 nM | apoptosis of Karpas-299 cells (caspase 3/7 glo, PARP western blotting) [12]: increased the number of apoptotic Karpas-299 cells | IC50 [13]: 18.6 nM | IC50 [14]: 54 nM
